Measured values reported in US20260042764A1, “COMPOSITIONS AND METHODS FOR INHIBITION OF KRAS” (TheRas, Inc., priority 2022, published 2026).

Assays:
[1] = tested on: SW620 cells (KRAS G12V); assay: Cell-based pERK HTRF assay in SW620 cell (Biological Example 4); settings: Homo sapiens, SW-620, SW620 (KRAS G12V) cells
Summary of the method: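 In SW620 cells grown in RPMI with 10% FBS, a 4 h compound treatment (0.25% DMSO, 9-point curve from 1 μM) preceded lysis. Phospho-ERK levels were then read by time-resolved FRET at 615 nm emission.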

[2] = molecular target: T1, Avi-KRAS WT (2-169) GTP/RAF1 RBD-3xFLAG (51-131) (Homo sapiens, UniProt P01116); assay: Raf1-KRAS WT-GTP disruption HTRF assay (Biological Example 3); type: binding; settings: KRAS WT, GTP-loaded
T1 construct: Avi-KRAS WT (2-169)
T1 sequence (P01116 2-169 isoform P01116-2): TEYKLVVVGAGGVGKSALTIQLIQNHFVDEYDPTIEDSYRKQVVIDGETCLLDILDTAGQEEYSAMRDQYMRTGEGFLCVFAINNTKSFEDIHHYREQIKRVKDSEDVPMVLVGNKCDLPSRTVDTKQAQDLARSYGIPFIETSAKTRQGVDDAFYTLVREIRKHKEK
Description: (§1) Biological Example 3: Disrupting RAS-Effector Binding HTRF Assay
(§2) A protein:protein interaction (PPI) Homogeneous Time Resolved Fluorescence (HTRF) assay was used to determine the effectiveness of compounds in disrupting KRAS protein and effector (RAF1) binding.
(§3) The HTRF assay used the following reagents and proteins: (i) 50 nM Avi-KRAS G12D (2-169) GTP/RAF1 RBD-3xFLAG (51-131): (ii) 50 nM Avi-KRAS G12C (2-169) GTP/RAF1 RBD-3xFLAG (51-131): (iii) 50 nM Avi-KRAS G12V (2-169) GTP/RAF1 RBD-3xFLAG (51-131); (iv) 50 nM Avi-KRAS WT (2-169) GTP/RAF1 RBD-3xFLAG (51-131); and (v) 75 nM 3xFLAG-RAF1 RBD (51-131)-Avi. The assay buffer included: 50 mM Tris pH 7.5 (Invitrogen, 15567-027), 100 mM NaCl (Sigma, S5150-IL), 5 mM MgCl2 (Sigma, 63069), 0.1% BSA (Sigma, A7030), 0.01% Tween 20 (Sigma, P7949), 10% DMSO (Cell Signaling, 12611). The bead buffer included: 50 mM Tris pH 7.5 (Invitrogen, 15567-027), 0.01% Tween 20 (Sigma, P7949). An assay volume of 20 μL was used in a 384 well plate-low volume format. Compound titration: 30-0.005 μM, 3x dilution series.
(§4) The HTRF assay employed the following protocol:
(§5) Compounds were dispensed in assay plate (384-well, Grenier Bio-One #784075) using Echo (model 555) with dose response settings: 200 nL final volume, titration from 30 μM as a 10-point dilution series. Proteins and HTRF reagents were mixed and dispensed onto plates, 20 μL per well, and then incubated for 1 h at room temperature, with 700 rpm shaking.
(§6) Plates were analyzed on an Envision plate reader using the following setting: Excitation 320 nm, Bandwidth 75 nm; Emission 615 nm, Bandwidth 85 nm; Gain 100%; Flashes 100; Lag 60 μs. Data was reported as percentage of activity, with DMSO as 100%. Data was plotted and analyzed using Prism 8.
(§7) The biochemical Raf1-KRAS G12D/G12V/G12C/WT-GTP disruption assay IC50 of selected compounds described herein are shown in Table 12.

[3] = molecular target: T2, Avi-KRAS G12V (2-169) GTP/RAF1 RBD-3xFLAG (51-131) (Homo sapiens, UniProt P01116, G12V); assay: Raf1-KRAS G12V-GTP disruption HTRF assay (Biological Example 3); type: binding; settings: KRAS G12V, GTP-loaded
T2 construct: Avi-KRAS G12V (2-169)
T2 sequence (P01116 2-169 isoform P01116-2 G12V): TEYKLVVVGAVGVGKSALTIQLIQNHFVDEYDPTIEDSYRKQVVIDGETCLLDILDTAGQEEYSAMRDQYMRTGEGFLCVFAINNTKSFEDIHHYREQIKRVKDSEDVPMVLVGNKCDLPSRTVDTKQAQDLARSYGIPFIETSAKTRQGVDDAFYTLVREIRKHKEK
Description: as §1, §2, §3, §4, §5, §6, §7

[4] = tested on: GP2d cells (KRAS G12D); assay: Cell-based pERK HTRF assay in GP2d cell (Biological Example 2); settings: GP2d, GP2d (KRAS G12D) cells
Summary of the method: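 GP2d (KRAS G12D) cells were plated in DMEM/10% FBS and treated the next day for 60 min with compounds. Dosing used 9-point half-log series starting at 1 μM or 100 nM in 0.25% DMSO. Lysates were read by HTRF pERK (d2/Eu cryptate antibodies) after 4–24 h at room temperature, with excitation at 320 nm and emission at 615 nm.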

[5] = molecular target: T3, Avi-KRAS G12D (2-169) GTP/RAF1 RBD-3xFLAG (51-131) (Homo sapiens, UniProt P01116, G12D); assay: Raf1-KRAS G12D-GTP disruption HTRF assay (Biological Example 3); type: binding; settings: KRAS G12D, GTP-loaded
T3 construct: Avi-KRAS G12D (2-169)
T3 sequence (P01116 2-169 isoform P01116-2 G12D): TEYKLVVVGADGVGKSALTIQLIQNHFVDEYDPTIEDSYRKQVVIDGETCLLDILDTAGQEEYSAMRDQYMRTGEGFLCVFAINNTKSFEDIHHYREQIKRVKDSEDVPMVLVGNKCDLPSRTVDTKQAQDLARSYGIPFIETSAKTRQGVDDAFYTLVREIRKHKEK
Description: as §1, §2, §3, §4, §5, §6, §7

[6] = molecular target: T4, Avi-KRAS G12C (2-169) GTP/RAF1 RBD-3xFLAG (51-131) (Homo sapiens, UniProt P01116, G12C); assay: Raf1-KRAS G12C-GTP disruption HTRF assay (Biological Example 3); type: binding; settings: KRAS G12C, GTP-loaded
T4 construct: Avi-KRAS G12C (2-169)
T4 sequence (P01116 2-169 isoform P01116-2 G12C): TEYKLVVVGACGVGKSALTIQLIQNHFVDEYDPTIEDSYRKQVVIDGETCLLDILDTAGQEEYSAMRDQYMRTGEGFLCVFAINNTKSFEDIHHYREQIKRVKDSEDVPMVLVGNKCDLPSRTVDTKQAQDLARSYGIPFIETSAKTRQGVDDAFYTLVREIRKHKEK
Description: as §1, §2, §3, §4, §5, §6, §7

IC50 [1]	IC50 [2]	IC50 [3]	IC50 [4]	IC50 [5]	IC50 [6]	SMILES
< 100 nM	100 to 1000 nM	≤ 100 nM	< 100 nM	≤ 100 nM	100 to 1000 nM	CCN(c1nc(OC[C@@]23CCCN2C[C@H](F)C3)nc2c(F)c(-c3ccc(F)c4sc(N)c(C#N)c34)c(C(F)(F)F)cc12)[C@H]1CCN(C(=O)c2cnc(C)s2)C1 (atropisomer, axis not shown) [Compound 902]
< 100 nM	1000 to 10000 nM	1000 to 10000 nM	< 100 nM	100 to 1000 nM	100 to 1000 nM	CCN(c1nc(OCC23CCCN2CC(F)C3)nc2c(F)c(-c3ccc(F)c4sc(N)c(C#N)c34)c(C(F)(F)F)cc12)C1CCN(C(=O)c2nc(C)ns2)C1 (stereo not drawn) [Compound 932]
< 100 nM	100 to 1000 nM	≤ 100 nM	< 100 nM	≤ 100 nM	≤ 100 nM	CCN(c1nc(OC[C@@]23CCCN2C[C@H](F)C3)nc2c(F)c(-c3ccc(F)c4sc(N)c(C#N)c34)c(C(F)(F)F)cc12)[C@H]1CCN(C(=O)c2coc(C)n2)C1 (atropisomer, axis not shown) [Compound 832]
< 100 nM	100 to 1000 nM	100 to 1000 nM	< 100 nM	≤ 100 nM	100 to 1000 nM	CCN(c1nc(OC[C@@]23CCCN2C[C@H](F)C3)nc2c(F)c(-c3ccc(F)c4sc(N)c(C#N)c34)c(C(F)(F)F)cc12)[C@H]1C[C@H]2CC(C)(C)C(=O)N2C1 (atropisomer, axis not shown) [Compound 864]
< 100 nM	100 to 1000 nM	100 to 1000 nM	< 100 nM	100 to 1000 nM	100 to 1000 nM	CCN(c1nc(OC[C@@]23CCCN2C[C@H](F)C3)nc2c(F)c(-c3ccc(F)c4sc(N)c(C#N)c34)c(C(F)(F)F)cc12)[C@H]1C[C@H]2[C@@H](C)OC(=O)N2C1 (atropisomer, axis not shown) [Compound 823]
< 100 nM	100 to 1000 nM	100 to 1000 nM	< 100 nM	100 to 1000 nM	100 to 1000 nM	CCN(c1nc(OC[C@@]23CCCN2C[C@H](F)C3)nc2c(F)c(-c3ccc(F)c4sc(N)c(C#N)c34)c(C(F)(F)F)cc12)[C@H]1CCN(C(=O)c2cccs2)C1 (atropisomer, axis not shown) [Compound 920]
< 100 nM	100 to 1000 nM	100 to 1000 nM	< 100 nM	100 to 1000 nM	100 to 1000 nM	CCN(c1nc(OC[C@@]23CCCN2C[C@H](F)C3)nc2c(F)c(-c3ccc(F)c4sc(N)c(C#N)c34)c(C(F)(F)F)cc12)[C@H]1CCN(C(=O)C2CC(OC)C2)C1 (stereo partly drawn) [Compound 844]

Continued, compound first:

SMILES	IC50 [1]	IC50 [2]	IC50 [3]	IC50 [4]	IC50 [5]	IC50 [6]
CCN(c1nc(OC[C@@]23CCCN2C[C@H](F)C3)nc2c(F)c(-c3ccc(F)c4sc(N)c(C#N)c34)c(C(F)(F)F)cc12)[C@@H]1C=C[C@H](C(=O)N(C)C)C1 (atropisomer, axis not shown) [Compound 937]	< 100 nM	1000 to 10000 nM	1000 to 10000 nM	< 100 nM	1000 to 10000 nM	1000 to 10000 nM
N#Cc1c(N)sc2c(F)ccc(-c3c(C(F)(F)F)cc4c(N5CCC(c6cccnc6)C5)nc(OC[C@@]56CCCN5C[C@H](F)C6)nc4c3F)c12 (stereo partly drawn) [Compound 943]	< 100 nM	> 10000 nM	> 10000 nM	< 100 nM	> 10000 nM	> 10000 nM
CCN(c1nc(OC[C@@]23CCCN2C[C@H](F)C3)nc2c(F)c(-c3ccc(F)c4sc(N)c(C#N)c34)c(C(F)(F)F)cc12)[C@H]1C[C@H]2[C@@H](C)N(C)C(=O)N2C1 (atropisomer, axis not shown) [Compound 910]	< 100 nM	100 to 1000 nM	100 to 1000 nM	< 100 nM	100 to 1000 nM	100 to 1000 nM
CCN(c1nc(OC[C@@]23CCCN2C[C@H](F)C3)nc2c(F)c(-c3ccc(F)c4sc(N)c(C#N)c34)c(C(F)(F)F)cc12)[C@H]1CCN(C(=O)[C@@H]2CC2(F)F)[C@H]1C (atropisomer, axis not shown) [Compound 887]	100 to 1000 nM	1000 to 10000 nM	1000 to 10000 nM	< 100 nM	1000 to 10000 nM	1000 to 10000 nM
CCN(c1nc(OC[C@@]23CCCN2C[C@H](F)C3)nc2c(F)c(-c3ccc(F)c4sc(N)c(C#N)c34)c(C(F)(F)F)cc12)[C@H]1C[C@H](COC)N(C(=O)[C@H]2CCO2)C1 (atropisomer, axis not shown) [Compound 840]	< 100 nM	100 to 1000 nM	100 to 1000 nM	< 100 nM	100 to 1000 nM	100 to 1000 nM
CN(Cc1ncoc1C#N)c1nc(OC[C@@]23CCCN2C[C@H](F)C3)nc2c(F)c(-c3ccc(F)c4sc(N)c(C#N)c34)c(C(F)(F)F)cc12 (atropisomer, axis not shown) [Compound 953]	100 to 1000 nM	1000 to 10000 nM	1000 to 10000 nM	< 100 nM	100 to 1000 nM	1000 to 10000 nM
CCN(c1nc(OC[C@@]23CCCN2C[C@H](F)C3)nc2c(F)c(-c3ccc(F)c4sc(N)c(C#N)c34)c(C(F)(F)F)cc12)[C@H]1C[C@H]2[C@H](C)N(C)C(=O)N2C1 (atropisomer, axis not shown) [Compound 863]	< 100 nM	100 to 1000 nM	≤ 100 nM	< 100 nM	≤ 100 nM	≤ 100 nM
CN(Cc1ccno1)c1nc(OC[C@@]23CCCN2C[C@H](F)C3)nc2c(F)c(-c3ccc(F)c4sc(N)c(C#N)c34)c(C(F)(F)F)cc12 (atropisomer, axis not shown) [Compound 917]	< 100 nM	1000 to 10000 nM	100 to 1000 nM	< 100 nM	100 to 1000 nM	1000 to 10000 nM
CCN(c1nc(OC[C@@]23CCCN2C[C@H](F)C3)nc2c(F)c(-c3ccc(F)c4sc(N)c(C#N)c34)c(C(F)(F)F)cc12)[C@H]1C[C@H]2CN(C3CCC3)C(=O)N2[C@@H]1C (atropisomer, axis not shown) [Compound 970]	< 100 nM	100 to 1000 nM	100 to 1000 nM	< 100 nM	100 to 1000 nM	100 to 1000 nM
CN(Cc1ncco1)c1nc(OC[C@@]23CCCN2C[C@H](F)C3)nc2c(F)c(-c3ccc(F)c4sc(N)c(C#N)c34)c(C(F)(F)F)cc12 (atropisomer, axis not shown) [Compound 885]	< 100 nM	1000 to 10000 nM	100 to 1000 nM	< 100 nM	100 to 1000 nM	100 to 1000 nM
CCN(c1nc(OC[C@@]23CCCN2C[C@H](F)C3)nc2c(F)c(-c3ccc(F)c4sc(N)c(C#N)c34)c(C(F)(F)F)cc12)[C@H]1CCN(C(=O)O[C@@H]2CO[C@H]3OCC[C@H]32)C1 (atropisomer, axis not shown) [Compound 834]	< 100 nM	100 to 1000 nM	≤ 100 nM	< 100 nM	≤ 100 nM	≤ 100 nM
